Experimental findings from patent US11260054B2, “Methods of treatment of cancer” (Pano Therapeutics, Inc., priority 2018, dated 2022) are described below.

Like-named read-outs stand apart in the source and are kept apart here.

Data set [1] deals with HCT116 cells. Put plainly: Hypoxic cancer cell survival assay, normoxic vs hypoxic (CellTiter-Glo). The data set is classed as cell-based. The following applies: for IC50: 72 hrs, read-out: Absolute IC50. The procedure:
HCT116 cells were cultured in an atmosphere of 37° C., 5% CO2, 95% humidity, and with either 1% O2 (hypoxic) or 20% O2 (normoxic). No antibiotics were used in the cell culturing. HeLa cells were grown in parallel and samples were taken after 48 h and 72 h to confirm Hypoxia-inducible factor-1α (HIF-1α) expression by western blot.
HCT116 cells were then seeded on 6-well plates and incubated at 37° C., 5% CO2, and 95% humidity overnight. Cells previously cultured under hypoxic conditions were again incubated with 1% O2, and cells previously cultured under normoxic conditions were again incubated with 20% O2.
(§1) Hypoxic and normoxic cells were then incubated for 72 hrs in humidified incubator at 37° C., 5% CO2, 95% humidity, and either 1% O2 (hypoxic) or 20% O2 (normoxic) with 5 m, AA6, metformin, or cisplatin at concentrations ranging from 1 mM-50 nM. Each condition was done in triplicate, and the structures of the compounds were not known to the experimenters. After the incubation, cells were lysed with CellTiter-Glo® Luminescent Cell Viability Assay reagent (Promega) and luminescence was read using an EnVision plate reader (PerkinElmer). Cell viability was plotted with GraphPad Prism version 5 and the IC50 was calculated for each compound with each cell line. The graphical curves were fitted using a nonlinear regression model with a sigmoidal dose response.
In general terms: Cellular ATP, detected with luciferase, serves as a proxy for viable cell number.

Data set [2] can be described thus: Pharmacokinetic parameters in mice, IV and oral. The format is in vivo, BALB/c mice. The following applies: for Vd: BALB/c, iv. The protocol:
Fed BALB/c mice were administered either 2 mg/kg of 5 m intravenously via the tail vein or 10 mg/kg of 5 m orally. For both conditions, 5 m was dissolved in 10% DMSO/50% PEG400/40% Water. Blood was sampled at various timepoints after the compound was administered and was analyzed using AB Sciex API 4000 LC/MS/MS in positive ion mode.

Data set [3] has as its system MiaPaCa-2 Cell Line. Put plainly: Pancreatic cancer cell survival assay, MiaPaCa-2 (CellTiter-Glo). The format is cell-based. The settings on record: 72 hrs incubation, read-out: Absolute IC50. The protocol:
as §1, with “PANC-1” for “Hypoxic”, “MiaPaCa-2 were grown overnight at 37° C., 5% CO2 and 95% humidity. PANC-1 was grown in DMEM+10% FBS and MIA PaCa-2 was grown in DMEM+10% FBS+2.5% H. Cells from each cell line” for “normoxic cells”, “C. and” for “C.,”, “CO2” for “CO2, 95% humidity, and either 1% O2 (hypoxic) or 20% O2 (normoxic)”, “100 μM-50” for “1 mM-50”

Data set [4] relates to PANC-1 Cell Line. Nature of the data set: Pancreatic cancer cell survival assay, PANC-1 (CellTiter-Glo). The settings on record: 72 hrs incubation, read-out: Absolute IC50. The format is cell-based. The procedure: as §1, with “PANC-1” for “Hypoxic”, “MiaPaCa-2 were grown overnight at 37° C., 5% CO2 and 95% humidity. PANC-1 was grown in DMEM+10% FBS and MIA PaCa-2 was grown in DMEM+10% FBS+2.5% H. Cells from each cell line” for “normoxic cells”, “C. and” for “C.,”, “CO2” for “CO2, 95% humidity, and either 1% O2 (hypoxic) or 20% O2 (normoxic)”, “100 μM-50” for “1 mM-50”

Data set [5] has as its system HTC116 Cell Line. Nature of the data set: Colorectal cancer cell survival assay (CellTiter-Glo). The format is cell-based. The settings on record: 72 hrs incubation. The protocol: HTC116 cells were grown overnight at 37° C., 5% CO2. Cells were then incubated for 72 hrs in humidified incubator at 37° C. and 5% CO2 with 5 m, AA6, metformin, S1QEL 1.1, or cisplatin at concentrations ranging from 100 μM-50 nM. Each condition was done in triplicate, and the structures of the compounds were not known to the experimenters. After the incubation, cells were lysed with CellTiter-Glo® Luminescent Cell Viability Assay reagent (Promega) and luminescence was read using an Envision plate reader.
The IC50s of 5 m, AA6, and cisplatin were similar with 5 m and AA6 having slightly lower IC50s. Metformin and S1Qel 1.1 had dramatically larger IC50s than 5 m, AA6, or cisplatin. Cell viability was plotted with GraphPad Prism version 5 and the IC50 was calculated for each compound. The graphical curves were fitted using a nonlinear regression model with a sigmoidal dose response.

Setting [6] is: HCT116, hypoxic conditions (1% O2).
Where [7] appears, read: mouse, blood, IV, 2 mg/kg, fed BALB/c mice, mean N = 3.
Where [8] appears, read: mouse, blood, oral, 10 mg/kg, fed BALB/c mice, mean N = 3.
Where [9] appears, read: Homo sapiens, HCT-116, 72 h, HCT116, hypoxic conditions (1% O2).

On to `N/C(=N\C(=O)c1nc(Cl)c(NCc2ccc(I)cc2)nc1N)NCCCCc1ccccc1` [5m, (E)-3-amino-N-(amino((4-phenylbutyl)amino)methylene)-6-chloro-5-((4-iodobenzyl)amino)pyrazine-2-carboxamide], for which the IC50 in data set [1] (setting [6]) is 1.7 µM; in data set [1] (HCT116, normoxic conditions (20% O2)), 0.7 µM; in data set [3], 4.3 µM; in data set [3] (Homo sapiens, MIA PaCa-2, 72 h) it was under 6 µM; in data set [4], 4.7 µM; in data set [4] (Homo sapiens, PANC-1, 72 h), under 6 µM. In addition, half-maximal inhibition in data set [5] (IC50) was put at 3.2 µM. Besides, in data set [2] (2 mg/kg intravenously or 10 mg/kg orally, BALB/c mice), the “apparent abnormal symptoms or toxicity during the assay” value is “did not result in any apparent abnormal symptoms or toxicity”. Moreover, the Vd in data set [2] (mouse, blood, 2 mg/kg, IV, 2 mg/kg, fed BALB/c mice, mean N = 3, read-out: Vss) turned out to be 9.41 L/kg; in data set [2] (mouse, blood, 2 mg/kg, IV, 2 mg/kg, fed BALB/c mice, mean N = 3, read-out: Vz), 17.5 L/kg. In addition, the “AUC Extr” value in data set [2] (IV, 2 mg/kg, fed BALB/c mice, mean N = 3) was 2.47%. Further, the half-life in data set [2] (mouse, blood, IV, 2 mg/kg via tail vein, fed BALB/c mice, mean N = 3) is 5.3 h; in data set [2] (setting [8]) it was 3.62 h. Also, the area under the curve AUC(0-inf) in data set [2] (setting [7]) was determined as 871 ng·h/mL; in data set [2] (setting [8]), 41.5 ng·h/mL. The AUC(0-t) in data set [2] (setting [7]) amounted to 849 ng·h/mL; in data set [2] (setting [8]), 32.8 ng·h/mL. The compound further gave a C0 in data set [2] (setting [7]) of 3870 ng/mL. In data set [2] (setting [7]), the MRT inf was found to be 4.1 h. Besides, the clearance in data set [2] (setting [7]) was 38.4 mL/min/kg. In data set [2] (setting [8]), this compound had a CL/F of 4030 mL/min/kg. In data set [2] (setting [8]), this compound registered a Cmax of 18.3 ng/mL. In addition, in data set [2] (mouse, blood, oral, 10 mg/kg, fed BALB/c mice, mean N = 3, read-out: Vz/F), the Vd/F stood at 1270 L/kg. The same compound came in with a F in data set [2] (oral 10 mg/kg vs IV 2 mg/kg, fed BALB/c mice, mean N = 3) of 0.773%.
Take `CN(CCCCCCc1ccccc1)CCCCNC(=O)c1nc(Cl)c(NCc2ccc(Cl)cc2)nc1N` [AA6, 3-amino-6-chloro-5-((4-chlorobenzyl)amino)-N-(4-(methyl(6-phenylhexyl)amino)butyl)pyrazine-2-carboxamide]: the IC50 was 5 µM in data set [1] (setting [6]); under 6 µM in data set [1] (setting [9]); 5.1 µM in data set [3]; under 6 µM in data set [3] (Homo sapiens, MIA PaCa-2, 72 h); 5.9 µM in data set [4]; under 6 µM in data set [4] (Homo sapiens, PANC-1, 72 h). Also, the midpoint of inhibition in data set [5], the IC50, lay at 3.6 µM.
As for `N.N.[Cl][Pt][Cl]` [Cisplatin, reference compound], the half-maximal inhibitory concentration (IC50) in data set [3] (listed as cisplatin) is 14.2 µM; in data set [3], 12.2 µM; in data set [4] (listed as cisplatin) it was 12.2 µM; in data set [4], 14.2 µM; in data set [5], 4.3 µM.
As for `CN(C)C(=N)N=C(N)N` [Metformin, reference compound], the dose response curve entry in data set [1] (HCT116, hypoxic conditions, concentrations up to 1 mM) was “failed to result in a recognizable dose response curve”. For the same compound, the IC50 in data set [1] (setting [9]) was over 1000 µM; in data set [1] (Homo sapiens, HCT-116, 72 h, HCT116, normoxic conditions (20% O2)), 71.8 µM; in data set [3] (Homo sapiens, MIA PaCa-2, 72 h), over 5000 µM; in data set [4] (Homo sapiens, PANC-1, 72 h), over 5000 µM; in data set [5] it was over 100 µM.

In general, IC50 refers to the point on the concentration scale where inhibition reaches its midpoint. What is called half-life is the time in which the quantity being followed falls by half. One may read the AUC(0-inf) as the area under the concentration-time curve extrapolated to infinity. Low values mean less exposure, high ones more exposure. The AUC(0-t) is the area under the concentration-time curve up to a stated or last time point. Read a low AUC(0-t) as low exposure. A word on the MRT inf: it is a mean duration of stay, worked out from the concentration-time curve. In general, CL/F refers to clearance divided by bioavailability, as obtained after extravascular dosing. A word on the Cmax: it is the peak of the concentration-time curve.
